According to patent publication US20130302305A1, “Methods for Treating Gout in Patients Subpopulations” (Metabolex, Inc., priority 2011, published 2013):
Several values for one entry are separate records, joined by “and”; a condition that tells them apart may be missing. Identical values can stand only once.

Tests used:
[1] = test system: gout patients; details: monotherapy at 40, 80, 120, 160 and 240 mg/day; cited from earlier work
[2] = test system: type 2 diabetic patients; assay: Pooled analysis of four phase 2 studies: change in serum uric acid (sUA) from baseline; format: in vivo, human; details: for reduction in serum uric acid from baseline: all analysed patients, 12-24 weeks (pooled)
Protocol: (§1) FIGS. 1-4 were generated based on the pooled analysis of four phase 2 studies conducted with (−)-halofenate in type 2 diabetic patients. In these studies a total of 955 patients were enrolled. In the M102-20303 study, two dose levels of (−)-halofenate (200 mg and 400 mg) or placebo were given orally daily to a total of 217 patients for 12 weeks. In the M102-20405 study, (−)-halofenate at a dose of 600 mg or placebo was given daily to a total of 100 patients for 12 weeks. In the M102-20509 study, three dose levels of (−)-halofenate (200 mg, 400 mg and 600 mg), Actos® 30 mg or placebo were given orally daily to a total of 396 patients for 16 weeks. In M102-20814 study, two dose levels of (−)-halofenate (400 mg and 600 mg), Actos® 30-45 mg or placebo were given orally daily to a total of 242 patients for 24 weeks. In these studies, change in serum uric acid (sUA) from baseline was one of the important endpoints. In order to maintain the blinded status, the sUA results following administration of double-blind study medication were not available to any parties until the studies were unblinded. Patients who added or changed the existing doses of medications that are known to influence serum uric acid levels were excluded from the serum uric acid analysis. Patients received either (−)-halofenate or matching placebo during the study were included in this exploratory analysis. Patients who received (−)-halofenate during the study but had no measurable (−)-halofenate in the blood were defined as non-compliant and were excluded from the analysis. This analysis indicated statistically significant dose dependent reduction in serum uric acid from baseline: 2% in the placebo group (n=252), −11% in the 200 mg group (n=125), −20% in the 400 mg group (n=174), and −27% in the 600 mg group (n=159); p<0.0001 for all dose groups. In order to evaluate the sUA response in CKD patients, in addition to the analysis described above, the patients were subdivided based on their baseline kidney function status. The kidney function status of each patient was evaluated by estimating the creatinine clearance (glomerular filtration rate) using the Cockcroft-Gault equation [Cockcroft-Gault GFR=(140−age)×(Body weight in kg)×(0.85 if female)/(72×serum creatinine)]. For estimating the baseline creatinine clearance, baseline body weight (kg) and baseline serum creatinine values were used and similarly, for estimating the end-of-the study creatinine clearance, end-of-study body weight and end-of-study serum creatinine values were used. […] In this analysis there were no patients with CKD4 (severe CKD) or CKD5 (kidney failure).

[3] = test system: type 2 diabetic patients; assay: Pooled analysis of four phase 2 studies: estimated creatinine clearance (Cockcroft-Gault), kidney function status; format: in vivo, human; details: for Mean Baseline estimated Cr Cl (mL/min) (second column of that head, c3): all analysed patients
Protocol: as §1
The changes in estimated creatinine clearance values in the 200 mg, 400 mg, and 600 mg groups compared to placebo group were not statistically significant.

[4] = test system: type 2 diabetes patients inadequately controlled on existing insulin therapy; assay: Phase 2 study M102-20303: HbA1c; format: in vivo, human; details: for reduction from baseline in HbA1c: all patients, endpoint at week 16
Protocol: (§2) FIGS. 5-7 were generated based on a randomized, double-blind, placebo-controlled phase 2 study, M102-20303. In this study, two dose levels of (−)-halofenate (200 mg and 400 mg) or placebo were given orally daily for 12 weeks to a total of 217 type 2 diabetes patients who were inadequately controlled on existing insulin therapy. In addition to their stable dose of insulin, these patients received the study drug for 12 weeks, and followed up for an additional four weeks. In this study, change in HbA1c from baseline at week 16 was the primary endpoint and changes in fasting plasma glucose and triglyceride from baseline at Week 12 were secondary endpoints. In order to maintain the blinded status, the HbA1c results following administration of double-blind study medication were not available to any parties until the studies were unblinded. In this study, patients were not allowed to add any other glucose lowering agent(s) or to change their existing doses of insulin. Patients who added lipid lowering agent(s) or changed their existing doses of lipid lowering agent(s) were excluded from the triglyceride analysis. Patients who received (−)-halofenate during the study but had no measurable (−)-halofenate in the blood were defined as non-compliant and were excluded from the analysis.

[5] = test system: type 2 diabetes patients inadequately controlled on existing insulin therapy; assay: Phase 2 study M102-20303: fasting plasma glucose (FPG); format: in vivo, human; details: for mean observed change in FPG from baseline at Week 12: all patients
Protocol: as §2

[6] = test system: type 2 diabetes patients inadequately controlled on existing insulin therapy; assay: Phase 2 study M102-20303: triglycerides; format: in vivo, human; details: CKD2 and CKD3 (mild to moderate CKD) patients, 400 mg daily for 12 weeks
Protocol: as §2

[7] = CKD2 and CKD3 (mild to moderate CKD) patients, 400 mg daily for 12 weeks

**Q.** Which “effect on serum uric acid” value [1] does the source give for O=c1[nH]cnc2c(CN3C[C@H](CO)[C@@H](O)C3)c[nH]c12 [Ulodesine, 7-(((3R,4R)-3-hydroxy-4-(hydroxymethyl)pyrrolidin-1-yl)methyl)-3H-pyrrolo[3,2-d]pyrimidin-4(5H)-one] here?
**A.** The value was “rapidly and significantly reduced serum uric acid”.

**Q.** Which “Mean Change in sUA (%)” value ([2]; 200 mg daily, CKD2 and CKD3 patients) does the source give for CC(=O)NCCOC(=O)[C@H](Oc1cccc(C(F)(F)F)c1)c1ccc(Cl)cc1 [(−)-halofenate, (−)-(R)-(4-chloro-phenyl)-(3-trifluoromethyl-phenoxy)-acetic acid 2-acetylamino-ethyl ester] here?
**A.** The value was −14% and −14.30%.

**Q.** What about the “Mean Change in sUA (%)” value ([2]; 400 mg daily, CKD2 and CKD3 patients) of the same molecule?
**A.** The value was −21% and −21.30%.

**Q.** What about the “Mean Change in sUA (%)” value ([2]; 600 mg daily, CKD2 (mild CKD) patients) of the same molecule?
**A.** The value was −28% and −28.2%.

**Q.** What about the “Mean Change in sUA (%)” value ([2]; 600 mg daily, CKD2 and CKD3 patients) of the same molecule?
**A.** The value was −29%.

**Q.** What about the “Mean Change in sUA (%)” value ([2]; 600 mg daily, CKD3 (moderate CKD) patients) of the same molecule?
**A.** The value was −36% and −35.6%.

**Q.** And the “Mean Change in sUA (%)” value ([2]; 600 mg daily, Normal and CKD1 patients)?
**A.** The value was −25% and −25.3%.

**Q.** And the “urate-lowering effect when co-administered with aspirin” value ([2]; 200, 400 and 600 mg daily with low to medium doses of aspirin (<= about 325 mg/day) vs no aspirin)?
**A.** The value was “does not result in clinically significant loss of the urate-lowering effect”.

**Q.** What about the “urate-lowering effect when co-administered with diuretics” value ([2]; 200, 400 and 600 mg daily with thiazide or other diuretics vs no diuretics) of the same molecule?
**A.** The value was “does not result in clinically significant loss of the urate-lowering effect”.

**Q.** And the “reduction in serum uric acid from baseline” value (“reduction in serum uric acid” for short) ([2]; 200 mg orally daily)?
**A.** The value was −11%.

**Q.** What about the “reduction in serum uric acid” value ([2]; 400 mg orally daily) of the same molecule?
**A.** The value was −20%.

**Q.** What about the “reduction in serum uric acid” value ([2]; 600 mg orally daily) of the same molecule?
**A.** The value was −27%.

**Q.** What about the “change in serum uric acid (sUA) from baseline” value (“change in serum uric acid (sUA)” for short) ([2]; aspirin treated patients (<= about 325 mg/day), 200 mg daily) of the same molecule?
**A.** The value was −13%.

**Q.** What about the “change in serum uric acid (sUA)” value ([2]; aspirin treated patients (<= about 325 mg/day), 400 mg daily) of the same molecule?
**A.** The value was −20%.

**Q.** What about the “change in serum uric acid (sUA)” value ([2]; aspirin treated patients (<= about 325 mg/day), 600 mg daily) of the same molecule?
**A.** Its value is −27%.

**Q.** What about the “change in serum uric acid (sUA)” value ([2]; patients not taking any diuretics, 200 mg daily) of the same molecule?
**A.** Its value is −11%.

**Q.** And the “change in serum uric acid (sUA)” value ([2]; patients not taking any diuretics, 400 mg daily)?
**A.** The value was −21%.

**Q.** And the “change in serum uric acid (sUA)” value ([2]; patients not taking any diuretics, 600 mg daily)?
**A.** Its value is −27%.

**Q.** What about the “change in serum uric acid (sUA)” value ([2]; patients not taking aspirin, 200 mg daily) of the same molecule?
**A.** Its value is −10%.

**Q.** What about the “change in serum uric acid (sUA)” value ([2]; patients not taking aspirin, 400 mg daily) of the same molecule?
**A.** The value was −20%.

**Q.** What about the “change in serum uric acid (sUA)” value ([2]; patients not taking aspirin, 600 mg daily) of the same molecule?
**A.** The value was −26%.

**Q.** What about the “change in serum uric acid (sUA)” value ([2]; patients taking any diuretics, 200 mg daily) of the same molecule?
**A.** Its value is −12%.

**Q.** What about the “change in serum uric acid (sUA)” value ([2]; patients taking any diuretics, 400 mg daily) of the same molecule?
**A.** Its value is −15%.

**Q.** What about the “change in serum uric acid (sUA)” value ([2]; patients taking any diuretics, 600 mg daily) of the same molecule?
**A.** The value was −24%.

**Q.** And the “change in serum uric acid (sUA)” value ([2]; thiazide diuretic treated patients, 200 mg daily)?
**A.** The value was −16%.

**Q.** And the “change in serum uric acid (sUA)” value ([2]; thiazide diuretic treated patients, 400 mg daily)?
**A.** Its value is −17%.

**Q.** What about the “change in serum uric acid (sUA)” value ([2]; thiazide diuretic treated patients, 600 mg daily) of the same molecule?
**A.** Its value is −24%.

**Q.** What about the “Mean Baseline estimated Cr Cl (mL/min) (second column of that head, c3)” value (“Mean Baseline estimated Cr Cl (mL/min)” below) ([3]; 200 mg daily) of the same molecule?
**A.** Its value is 102.4 mL/min.

**Q.** And the “change in CrCL as compared to placebo” value ([3]; 200 mg, 400 mg and 600 mg per day (FIG. 4))?
**A.** The value was “no clinically significant change in CrCL”.

**Q.** What about the “Mean Baseline estimated Cr Cl (mL/min)” value ([3]; 400 mg daily) of the same molecule?
**A.** The value was 103.5 mL/min.

**Q.** And the “Mean Baseline estimated Cr Cl (mL/min)” value ([3]; 600 mg daily)?
**A.** Its value is 100.6 mL/min.

**Q.** What about the “Change in HbA1c (%)” value [4, 7] of the same molecule?
**A.** The value was −1.1%.

**Q.** And the “End-of-study HbA1c (%)” value [4, 7]?
**A.** The value was 8.1%.

**Q.** What about the “reduction from baseline in HbA1c” value ([4]; 200 mg daily for 12 weeks on stable insulin) of the same molecule?
**A.** Its value is −0.9%.

**Q.** And the “reduction from baseline in HbA1c” value ([4]; 400 mg daily for 12 weeks on stable insulin)?
**A.** Its value is −1.0%.

**Q.** And the “Change in FPG (%)” value [5, 7]?
**A.** The value was −18.0% and −17.6%.

**Q.** What about the “End-of-study FPG” value [5, 7] of the same molecule?
**A.** The value was 136.5 mg/dL.

**Q.** What about the “mean observed change in FPG from baseline at Week 12” value ([5]; 200 mg daily) of the same molecule?
**A.** Its value is -10.9 mg/dL.

**Q.** And the “mean observed change in FPG from baseline at Week 12” value ([5]; 400 mg daily)?
**A.** The value was -29.2 mg/dL.

**Q.** What about the “Change in triglyceride” value [6] of the same molecule?
**A.** Its value is -33.6 mg/dL.

**Q.** And the “End-of-study triglyceride” value [6]?
**A.** The value was 168.6 mg/dL.
